The subject of experiment [1] is outbred (Swiss) female mice. As to conditions: drinking water with Mg2+ 120 mg per liter from weaning, fed on alternate days. How it is done: A short-lived mammalian species was chosen. […] Two hundred outbred (Swiss) female mice were divided randomly at weaning into two groups of 100 mice and were maintained under identical management and environmental conditions.
The second group of mice was supplied with drinking water that contained magnesium sulphate (Epsom salts) 1 gram per liter with a pH value between pH 6.5 and pH 7.0. This drinking water contained approximately Mg^2+ 120mg per liter. Bicarbonate anions were absent.
Both groups of mice were fed commercial laboratory food that contained 1 gram of magnesium per kilogram of food. Both groups of mice were fed on alternate days with no food available on the other days. Group-specific drinking water (as described above) was available at all times.

For experiment [2] the following is noted: with lowered body weight; text refers to the trial of Example 5.
Method: A trial involving people consuming bicarbonate anions in water was conducted. These people were middle aged and overweight and complained of tiredness and lethargy. No control group was maintained for the duration of the trial (people in an initial control group were unable to consume the volumes of soft water required). […] They were requested to decrease their food (calorie) intake considerably and to avoid dietary fats.
Bicarbonate concentration was established at a maximum of one gram per liter.
Each participant in the trial was advised to consume the bicarbonate solution ‘on an empty stomach’. […] Advice was given also to consume the solution in small amounts at set times each day. Consumption in this manner avoided a rapid increase in the bicarbonate concentrations of body fluids.
The subject of experiment [3] is post menopausal women with osteoarthritis in the joints of their hands. The settings on record: in vivo.
From the text: For an experimental trial, a group of post menopausal women were chosen who had clinical signs of osteoarthritis in the joints of their hands. The osteoarthritic joints included the distal and proximal interphalangeal joints of the fingers and the carpometacarpal joint of the thumbs. In all cases, loss of joint function was moderate to severe.
In all cases, the women suffered pain, swelling of the fingers and loss of joint movement. […] Women with affected thumbs had considerable loss of function and considerable pain. […] The women consumed between 2 to 3 liters of bicarbonate solution per day. […] Consumption was commenced at half a liter per day and increased by increments over a period of one month to 2 to 3 liters per day. Consumption occurred on an empty stomach to avoid the loss of bicarbonate by stomach acid. Consumption occurred in small amounts (300 mL) at set times each day to avoid rapid increases in bicarbonate concentrations of body fluids.

`O=S(=O)([O-])[O-].[Mg+2]` [magnesium sulphate, reference compound]: in experiment [1], the “Fifty Percent Survival” value is 736 days and the “Maximum Life Span” value was 1040 days.
On to magnesium bicarbonate, for which the Blood pressure entry in experiment [2] is on record as “reduction in high blood pressure to a normal value”. Moreover, the “Pain and swelling associated with osteoarthritis” value in experiment [3] is “alleviated the pain and swelling associated with osteoarthritis”. In experiment [1], the “Fifty Percent Survival” value is 790 days and the “Maximum Life Span” value is 1152 days.

Values taken from patent publication US6544561B2 (The Lachlan Family Pty Ltd., priority 1997, dated 2003).
